One test concerns the target T1, Full length Human HDAC8 (Homo sapiens, UniProt Q9BY41).
T1 construct: Full length Human HDAC8; HIS (N); host or cells: baculovirus expression system
T1 sequence (Q9BY41 1-377): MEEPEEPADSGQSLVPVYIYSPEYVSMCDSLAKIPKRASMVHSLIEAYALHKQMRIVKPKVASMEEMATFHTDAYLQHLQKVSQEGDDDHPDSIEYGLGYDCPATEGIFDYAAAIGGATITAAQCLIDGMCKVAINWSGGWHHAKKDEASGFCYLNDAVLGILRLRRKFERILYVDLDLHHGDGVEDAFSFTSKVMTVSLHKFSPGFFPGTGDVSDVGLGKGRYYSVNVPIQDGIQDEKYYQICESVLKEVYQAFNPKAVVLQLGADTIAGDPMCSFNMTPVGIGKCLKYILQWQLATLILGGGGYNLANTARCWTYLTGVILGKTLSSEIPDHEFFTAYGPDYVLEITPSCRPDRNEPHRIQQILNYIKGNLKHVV
The test can be described thus: Caliper endpoint assay for HDAC enzymatic activity (HDAC8). In kind it is biochemical. Conditions: in vitro enzymatic, 30 min pre-incubation, 1 μM substrate peptide.

For a further test, the target named is T2, Full length Human HDAC6 (Homo sapiens, UniProt Q9UBN7).
T2 construct: Full length Human HDAC6; FLAG (C); host or cells: baculovirus expression system
T2 sequence (Q9UBN7 1-1215): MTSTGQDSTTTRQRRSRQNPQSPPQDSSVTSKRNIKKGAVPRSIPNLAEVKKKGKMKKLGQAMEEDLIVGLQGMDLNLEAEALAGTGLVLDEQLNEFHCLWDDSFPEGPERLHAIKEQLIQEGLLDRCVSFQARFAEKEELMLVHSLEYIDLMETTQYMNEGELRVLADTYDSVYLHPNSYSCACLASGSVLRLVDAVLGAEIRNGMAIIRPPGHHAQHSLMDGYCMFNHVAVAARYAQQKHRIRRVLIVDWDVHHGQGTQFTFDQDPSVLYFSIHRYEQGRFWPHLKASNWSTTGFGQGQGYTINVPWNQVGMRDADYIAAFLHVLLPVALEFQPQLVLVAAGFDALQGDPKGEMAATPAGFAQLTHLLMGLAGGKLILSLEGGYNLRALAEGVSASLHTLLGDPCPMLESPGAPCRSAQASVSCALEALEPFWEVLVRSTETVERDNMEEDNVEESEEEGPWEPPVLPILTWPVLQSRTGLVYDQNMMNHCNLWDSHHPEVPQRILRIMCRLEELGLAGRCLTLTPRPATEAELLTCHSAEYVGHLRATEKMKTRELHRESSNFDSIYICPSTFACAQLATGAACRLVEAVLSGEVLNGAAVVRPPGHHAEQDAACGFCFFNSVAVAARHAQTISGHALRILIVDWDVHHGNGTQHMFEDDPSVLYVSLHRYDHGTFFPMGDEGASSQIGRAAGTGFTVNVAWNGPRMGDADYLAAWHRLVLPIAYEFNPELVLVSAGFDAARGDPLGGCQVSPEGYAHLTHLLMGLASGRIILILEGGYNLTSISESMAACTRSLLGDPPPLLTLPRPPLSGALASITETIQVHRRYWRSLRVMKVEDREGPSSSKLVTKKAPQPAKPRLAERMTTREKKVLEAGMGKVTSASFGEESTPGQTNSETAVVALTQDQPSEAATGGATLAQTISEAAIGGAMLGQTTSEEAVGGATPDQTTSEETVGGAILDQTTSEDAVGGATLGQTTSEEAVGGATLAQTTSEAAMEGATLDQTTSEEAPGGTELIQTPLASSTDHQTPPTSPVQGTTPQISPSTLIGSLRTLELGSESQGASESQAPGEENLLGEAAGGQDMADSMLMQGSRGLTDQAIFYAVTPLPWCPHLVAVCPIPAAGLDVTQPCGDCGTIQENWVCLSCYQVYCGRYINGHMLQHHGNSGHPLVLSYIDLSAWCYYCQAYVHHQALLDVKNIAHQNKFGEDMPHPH
As to the kind of experiment: Caliper endpoint assay for HDAC enzymatic activity (HDAC6). The conditions noted are these: for IC50: in vitro enzymatic, Caliper endpoint assay, 30 min pre-incubation, 1 μM substrate peptide; for Selectivity (6 v 8): ratio of HDAC8 IC50/HDAC6 IC50. In kind it is biochemical.

Each structure is given as a SMILES string.

One may read the IC50 as the concentration needed to halve the response being measured. `CC[C@H](c1ccc(C(=O)NO)cc1F)N1CCC2(CCCCC2)C1` (single isomer, unassigned) [Compound 238] registered an IC50 against Full length Human HDAC8 of 1000 to 10000 nM. At Full length Human HDAC6, the IC50 lay in the range of 100 to 1000 nM and the “Selectivity (6 v 8)” value was “III (III: >10-100)”.
In the same order, the values of `CC1(C)C[C@H]2Cc3c(F)cc(C(=O)NO)cc3CN2C1` [Compound 128] are 1000 to 10000 nM, 100 to 1000 nM and “III (III: >10-100)”.
In the same order, the values of `O=C(NO)c1cc(F)c2c(c1)CCN(C[C@H]1CCCCO1)C2` (single isomer, unassigned) [Compound 175] are 10000 to 100000 nM, 1 to 100 nM and “IV (IV: >100-1000)”.
In the same order, the values of `CC[C@H]1Cc2c(F)cc(C(=O)NO)cc2CN1C[C@@H]1CCCCO1` (single isomer, unassigned) [Compound 229] are 1000 to 10000 nM, 100 to 1000 nM and “III (III: >10-100)”.
At Full length Human HDAC8, `CC[C@H]1Cc2c(F)cc(C(=O)NO)cc2CN1CC1CC2CCC(C1)N2C1CC1` (single isomer, unassigned) [Compound 576] showed an IC50 of 1000 to 10000 nM. Also, on Full length Human HDAC6, the IC50 is 1 to 100 nM and the “Selectivity (6 v 8)” value was “IV (IV: >100-1000)”.
Take `O=C(NO)c1cc(F)c2c(c1)CCN1CCCC[C@H]21` (single isomer, unassigned) [Compound 140]: the IC50 at Full length Human HDAC8 is 10000 to 100000 nM; at Full length Human HDAC6, 1000 to 10000 nM.
As for `CC[C@@H]1Cc2c(F)cc(C(=O)NO)cc2CN1C[C@]12C[C@H](CO1)N(C)C2` (single isomer, unassigned) [Compound 554], the IC50 on Full length Human HDAC8 was 1000 to 10000 nM. For the same molecule, on Full length Human HDAC6, the IC50 lay within 1 to 100 nM and the “Selectivity (6 v 8)” value is “IV (IV: >100-1000)”.
`CC(=O)N1CCC[C@]2(C1)C[C@H](N1CCc3cc(C(=O)NO)cc(F)c3C1)C2` (single isomer, unassigned) [Compound 348, 2-(6-acetyl-6-azaspiro[3.5]nonan-2-yl)-8-fluoro-3,4-dihydro-1H-isoquinoline-6-carbohydroxamic acid] showed an IC50 against Full length Human HDAC8 of 10000 to 100000 nM. On Full length Human HDAC6, the IC50 fell in the range of 1 to 100 nM and the “Selectivity (6 v 8)” value is on record as “IV (IV: >100-1000)”.
In the same order, the values of `O=C(NO)c1cc(F)c2c(c1)CCN(CC13CC4CC(CC(C4)N1)C3)C2` [Compound 176] are 10000 to 100000 nM, 1 to 100 nM and “V (V: >1000)”.
In the same order, the values of `O=C(NO)c1cc(F)c2c(c1)CCN(C1CCC3(CCN(C4CC4)CC3)C1)C2` (stereo not drawn) [Compound 418, N-2-(8-cyclopropyl-8-azaspiro[4.5]decan-2-yl)-8-fluoro-N-hydroxy-1,2,3,4-tetrahydroisoquinoline-6-carboxamide] are 1000 to 10000 nM, 1 to 100 nM and “IV (IV: >100-1000)”.
In the same order, the values of `CC1(C)CC(N2CCc3cc(C(=O)NO)cc(F)c3C2)C1` [Compound 201, 2-(3,3-dimethylcyclobutyl)-8-fluoro-3,4-dihydro-1H-isoquinoline-6-carbohydroxamic acid] are 10000 to 100000 nM, 1 to 100 nM and “V (V: >1000)”.
On to `O=C(NO)c1cc(F)c2c(c1)C[C@@H]1COCCN1C2` (single isomer, unassigned) [Compound 129], for which the IC50 is over 100000 nM at Full length Human HDAC8 and 10000 to 100000 nM at Full length Human HDAC6.
Turning to `CN1CC[C@@]2(CC[C@H](N3CCc4cc(C(=O)NO)cc(F)c4C3)C2)C1` (single isomer, unassigned) [Compound 405], the IC50 at Full length Human HDAC8 was over 100000 nM; against Full length Human HDAC6, 1 to 100 nM. For the same molecule, the “Selectivity (6 v 8)” value on Full length Human HDAC6 is on record as “V (V: >1000)”.
In the same order, the values of `[2H]c1c(C(=O)NO)ccc2c1CCN(C1CC3(CCCCC3)C1)C2` [Compound 505, N-hydroxy-2-(spiro[3.5]nonan-2-yl)-1,2,3,4-tetrahydroisoquinoline-5-d-6-carboxamide] are 10000 to 100000 nM, 1 to 100 nM and “IV (IV: >100-1000)”.
In the same order, the values of `CN1CC[C@@]2(CC[C@H]2N2CCc3cc(C(=O)NO)cc(F)c3C2)C1` (single isomer, unassigned) [Compound 331] are 10000 to 100000 nM, 1 to 100 nM and “IV (IV: >100-1000)”.
In turn, `O=C(NO)c1cc(F)cc(CN2CCC3(CCCCC3)CC2)c1` [Compound 276, 3-((3-azaspiro[5.5]undecan-3-yl)methyl)-5-fluoro-N-hydroxybenzamide] yielded an IC50 against Full length Human HDAC8 of 1000 to 10000 nM. At Full length Human HDAC6, the IC50 fell in the range of 10000 to 100000 nM and the “Selectivity (6 v 8)” value is given as “I (I: 0.1-1)”.
In the same order, the values of `CN1CCC[C@]2(C1)C[C@H](N1CCc3cc(C(=O)NO)cc(F)c3C1)C2` (single isomer, unassigned) [Compound 344, 8-fluoro-N-hydroxy-2-((2s,4r)-6-methyl-6-azaspiro[3.5]nonan-2-yl)-1,2,3,4-tetrahydroisoquinoline-6-carboxamide] are 10000 to 100000 nM, 1 to 100 nM and “IV (IV: >100-1000)”.
Take `CC[C@@H]1Cc2c(F)cc(C(=O)NO)cc2CN1CC1CCCCC1` (single isomer, unassigned) [Compound 517]: the 50% inhibitory concentration (IC50) was 1000 to 10000 nM against Full length Human HDAC8 and 1 to 100 nM against Full length Human HDAC6. Also, the “Selectivity (6 v 8)” value on Full length Human HDAC6 was “III (III: >10-100)”.
In the case of `O=C(NO)c1cc(F)c2c(c1)CCN([C@H]1CCC3(CCCC3)C1)C2` (single isomer, unassigned) [Compound 185], at Full length Human HDAC8, the IC50 was in the range of 10000 to 100000 nM. At Full length Human HDAC6, the IC50 fell in the range of 1 to 100 nM and the “Selectivity (6 v 8)” value was “IV (IV: >100-1000)”.
As to `O=C(NO)c1cc(F)c2c(c1)CCN(C[C@@H]1CCC3(CCCCC3)C1)C2` (single isomer, unassigned) [Compound 107], the IC50 against Full length Human HDAC8 fell in the range of 10000 to 100000 nM; against Full length Human HDAC6, 1 to 100 nM.
Take `CC[C@H]1Cc2c(F)cc(C(=O)NO)cc2CN1C1CCCCC1` (single isomer, unassigned) [Compound 583]: the IC50 against Full length Human HDAC8 is 10000 to 100000 nM. Further, at Full length Human HDAC6, the IC50 is 100 to 1000 nM and the “Selectivity (6 v 8)” value is given as “III (III: >10-100)”.
With `CN1[C@@H]2CC[C@H]1CC(CN1CCc3cc(C(=O)NO)cc(F)c3C1)C2` (single isomer, unassigned) [Compound 483], the IC50 on Full length Human HDAC8 was in the range of 1000 to 10000 nM. Also, at Full length Human HDAC6, the IC50 lay in the range of 1 to 100 nM and the “Selectivity (6 v 8)” value was “IV (IV: >100-1000)”.
In the same order, the values of `CC[C@@H]1Cc2c(F)cc(C(=O)NO)cc2CN1C1CC2(CCOCC2)C1` (single isomer, unassigned) [Compound 590] are 10000 to 100000 nM, 100 to 1000 nM and “III (III: >10-100)”.
`CC[C@H]1Cc2c(F)cc(C(=O)NO)cc2CN1C[C@@]12C[C@@H](CO1)N(C)C2` (single isomer, unassigned) [Compound 553] registered an IC50 against Full length Human HDAC8 of 10000 to 100000 nM. Besides, on Full length Human HDAC6, the IC50 is 1 to 100 nM and the “Selectivity (6 v 8)” value was “IV (IV: >100-1000)”.
As for `CN1CCC[C@]2(C1)C[C@@H](N1CCc3cc(C(=O)NO)cc(F)c3C1)C2` (single isomer, unassigned) [Compound 343, 8-fluoro-N-hydroxy-2-((2r,4s)-6-methyl-6-azaspiro[3.5]nonan-2-yl)-1,2,3,4-tetrahydroisoquinoline-6-carboxamide], the IC50 against Full length Human HDAC8 is 10000 to 100000 nM. Moreover, on Full length Human HDAC6, the IC50 fell in the range of 1 to 100 nM and the “Selectivity (6 v 8)” value was “IV (IV: >100-1000)”.

(Values after US12655106B2 (Eikonizo Therapeutics, Inc., priority 2021, dated 2026).)
